The source of these data is patent publication US7592336B2, “Hepatitis C virus inhibitors” (Bristol-Myers Squibb Company, priority 2005, dated 2009).

This assay concerns the target T1, human liver cathepsin B (Homo sapiens, UniProt P07858).
T1 construct: purchased Sigma; host or cells: human liver
In words: Specificity assay, cathepsin B. The format is biochemical. The conditions noted are these: 2 h enzyme-inhibitor pre-incubation; read-out: Cathepsin B activity in the specificity assays (IC50). How it is done: The specificities of compounds of the present disclosure were determined against a variety of serine proteases: human neutrophil elastase (HNE), porcine pancreatic elastase (PPE) and human pancreatic chymotrypsin and one cysteine protease: human liver cathepsin B. In all cases a 96-well plate format protocol using calorimetric p-nitroaniline (pNA) substrate specific for each enzyme was used as described previously (PCT Patent Application No. WO 00/09543) with some modifications to the serine protease assays. All enzymes were purchased from Sigma while the substrates were from Bachem.
Each assay included a 2 h enzyme-inhibitor pre-incubation at room temperature followed by addition of substrate and hydrolysis to 30% conversion as measured on a Spectramax Pro microplate reader. Compound concentrations varied from 100 to 0.4 μM depending on their potency. […]
The percentage of inhibition was calculated using the formula: [1−((UVinh−UVblank)/(UVctl−UVblank))]×100 […]

For `C=C[C@@H]1C[C@]1(NC(=O)[C@@H]1C[C@@](O)(c2ccc(-c3ccccc3)cc2)CN1C(=O)[C@@H](NC(=O)OC(C)(C)C)C(C)(C)C)C(=O)NS(=O)(=O)C1CC1` [Compound 3], the IC50 (as a rule, the concentration that inhibits the measured activity by half) worked out at 2000 nM.
